Each structure is given as a SMILES string.

The experiment deals with T1, PDE10A enzyme (Homo sapiens, UniProt Q9Y233).
T1 construct: made in house; host or cells: E. coli BL21(DE3)
T1 sequence (Q9Y233 716-1055): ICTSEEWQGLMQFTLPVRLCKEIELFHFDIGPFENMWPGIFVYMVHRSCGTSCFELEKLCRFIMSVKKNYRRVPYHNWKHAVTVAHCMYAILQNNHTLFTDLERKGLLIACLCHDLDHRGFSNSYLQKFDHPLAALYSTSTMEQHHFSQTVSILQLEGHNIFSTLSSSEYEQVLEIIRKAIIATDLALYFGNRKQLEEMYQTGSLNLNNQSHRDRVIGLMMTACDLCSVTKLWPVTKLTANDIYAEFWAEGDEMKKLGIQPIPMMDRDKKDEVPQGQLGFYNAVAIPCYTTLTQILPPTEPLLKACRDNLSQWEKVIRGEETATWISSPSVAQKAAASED
The experiment can be described thus: PDE10A inhibition assay, SPA. The conditions noted are these: column head 2,1334003; unit inferred, nM. It is filed as biochemical. As to the method:
Active PDE10A enzyme is prepared in a number of ways for use in PDE assays (Loughney, K. et al. Gene 1999, 234, 109-117; Fujishige, K. et al. Eur J Biochem. 1999, 266, 1118-1127 and Soderling, S. et al. Proc. Natl. Acad. Sci. 1999, 96, 7071-7076). PDE10A can be expressed as full-length proteins or as truncated proteins, as long as they express the catalytic domain. PDE10A can be prepared in different cell types, for example insect cells or E. coli. An example of a method to obtain catalytically active PDE10A is as follows: The catalytic domain of human PDE10A (amino acids 440-779 from the sequence with accession number NP 006652) is amplified from total human brain total RNA by standard RT-PCR and is cloned into the BamH1 and Xho1 sites of the pET28a vector (Novagen). Expression in coli is performed according to standard protocols. Briefly, the expression plasmids are transformed into the BL21(DE3) E. coli strain, and 50 mL cultures inoculated with the cells allowed to grow to an OD600 of 0.4-0.6 before protein expression is induced with 0.5 mM IPTG. Following induction, the cells are incubated overnight at room temperature, after which the cells are collected by centrifugation. Cells expressing PDE10A are resuspended in 12 mL (50 mM TRIS-HCl-pH8.0, 1 mM MgCl2 and protease inhibitors). The cells are lysed by sonication, and after all cells are lysed, TritonX100 is added according to Novagen protocols.
PDE10A and Pde3A assays can for example be performed as follows: PDE10A and Pde3A assays are performed in 60 uL samples containing a fixed amount of the relevant PDE enzyme (sufficient to convert 20-25% of the cyclic nucleotide substrate), a buffer (50 mM HEPES7.6; 10 mM MgCl2; 0.02% Tween20), 0.1 mg/ml BSA, 225 pCi of ^3H-labelled cyclic nucleotide substrate, tritium labeled cAMP to a final concentration of 5 nM and varying amounts of inhibitors. Reactions are initiated by addition of the cyclic nucleotide substrate, and reactions are allowed to proceed for one hr at room temperature before being terminated through mixing with 15 uL 8 mg/mL yttrium silicate SPA beads (Amersham). The beads are allowed to settle for one hr in the dark before the plates are counted in a Wallac 1450 Microbeta counter. The measured signal can be converted to activity relative to an uninhibited control (100%) and IC50 values can be calculated using the Xlfit extension to EXCEL.
Compound `COc1cc2c(N3CCNC(c4ccc5ccccc5c4)C3)nc(C)c(C#N)c2cc1OC` (stereo not drawn) [Compound 33, 6,7-Dimethoxy-3-methyl-1-(3-naphthalen-2-yl-piperazin-1-yl)-isoquinoline-4-carbonitrile] displayed an IC50 of 2100 nM. Then `COc1cc2c(N3CCNC(c4cccc5ccccc45)C3)nc(C)c(C#N)c2cc1OC` (stereo not drawn) [Compound 34, 6,7-Dimethoxy-3-methyl-1-(3-naphthalen-1-yl-piperazin-1-yl)-isoquinoline-4-carbonitrile], with 880 nM; and `COc1cc(OC)cc(C2CN(c3nc(C)c(C#N)c4cc(OC)c(OC)cc34)CCN2)c1` (stereo not drawn) [Compound 35, 1-[3-(3,5-Dimethoxy-phenyl)-piperazin-1-yl]-6,7-dimethoxy-3-methyl-isoquinoline-4-carbonitrile], with 710 nM. Next, `COc1ccc(OC)c(C2CN(c3nc(C)c(C#N)c4cc(OC)c(OC)cc34)CCN2)c1` (stereo not drawn) [Compound 36, 1-[3-(2,5-Dimethoxy-phenyl)-piperazin-1-yl]-6,7-dimethoxy-3-methyl-isoquinoline-4-carbonitrile]: 960 nM; `COc1cc2c(N3CCNC(c4ccc(Br)cc4)C3)nc(C)c(C#N)c2cc1OC` (stereo not drawn) [Compound 37, 1-[3-(4-Bromo-phenyl)-piperazin-1-yl]-6,7-dimethoxy-3-methyl-isoquinoline-4-carbonitrile]: 2600 nM.

Consider `COc1ccc2cc(C3CN(c4nc(C)c(C#N)c5cc(OC)c(OC)cc45)CCN3)ccc2c1` (stereo not drawn) [Compound 38, 6,7-Dimethoxy-1-[3-(6-methoxy-naphthalen-2-yl)-piperazin-1-yl]-3-methyl-isoquinoline-4-carbonitrile], for which half-maximal inhibition (IC50) required 980 nM.

For the compound `COc1ccc(C2CN(c3nc(C)c(C#N)c4cc(OC)c(OC)cc34)CCO2)cc1` (stereo not drawn) [Compound 39, 6,7-Dimethoxy-1-[2-(4-methoxy-phenyl)-morpholin-4-yl]-3-methyl-isoquinoline-4-carbonitrile], the IC50 stood at 930 nM. Then `COc1cc2c(N3CCN[C@H](c4ccccc4)C3)nc(C)c(C#N)c2cc1OC` [Compound 40], with 520 nM; and `COc1cc2c(N3CCNC(c4ccc(F)cc4)C3)nc(C)c(C#N)c2cc1OC` (stereo not drawn) [Compound 41, 1-[3-(4-Fluoro-phenyl)-piperazin-1-yl]-6,7-dimethoxy-3-methyl-isoquinoline-4-carbonitrile], with 1200 nM; and `COc1cc2c(N3CCNC(c4ccccc4OC)C3)nc(C)c(C#N)c2cc1OC` (stereo not drawn) [Compound 42, 6,7-Dimethoxy-1-[3-(2-methoxy-phenyl)-piperazin-1-yl]-3-methyl-isoquinoline-4-carbonitrile], with 1400 nM. Compound `COc1cc2c(N3CCNC(c4ccc5c(c4)OCO5)C3)nc(C)c(C#N)c2cc1OC` (stereo not drawn) [Compound 43, 1-(3-Benzo[1,3]dioxol-5-yl-piperazin-1-yl)-6,7-dimethoxy-3-methyl-isoquinoline-4-carbonitrile] registered an IC50 of 510 nM. Then `COc1cc2c(C#N)cnc(N3CCN[C@@H](c4ccccc4)C3)c2cc1OC` [Compound 44, 6,7-Dimethoxy-1-((S)-3-phenyl-piperazin-1-yl)-isoquinoline-4-carbonitrile], with 410 nM.

The compound `COc1cc2c(C#N)cnc(N3CCN(C)C(c4ccc(C)cc4)C3)c2cc1OC` (stereo not drawn) [Compound 45, 6,7-Dimethoxy-1-(4-methyl-3-p-tolyl-piperazin-1-yl)-isoquinoline-4-carbonitrile] returned an IC50 of 350 nM.

`CCc1ccc(C2CN(c3ncc(C#N)c4cc(OC)c(OC)cc34)CCN2)cc1` (stereo not drawn) [Compound 46, 1-[3-(4-Ethyl-phenyl)-piperazin-1-yl]-6,7-dimethoxy-isoquinoline-4-carbonitrile] returned an IC50 of 1300 nM. Next, `COc1cc2c(N3CCNC(c4ccc(N(C)C)cc4)C3)nc(C)c(C#N)c2cc1OC` (stereo not drawn) [Compound 47, 1-[3-(4-Dimethylamino-phenyl)-piperazin-1-yl]-6,7-dimethoxy-3-methyl-isoquinoline-4-carbonitrile]: 1200 nM; `COc1cc2c(N3CCNC(c4cc(OC)c(OC)c(OC)c4)C3)nc(C)c(C#N)c2cc1OC` (stereo not drawn) [Compound 48, 6,7-Dimethoxy-3-methyl-1-[3-(3,4,5-trimethoxy-phenyl)-piperazin-1-yl]-isoquinoline-4-carbonitrile]: 1500 nM. Next, `COc1cc2c(N3CCN[C@@H](c4ccccc4)C3)nc(C)c(C#N)c2cc1OC` [Compound 49, 6,7-Dimethoxy-3-methyl-1-((S)-3-phenyl-piperazin-1-yl)-isoquinoline-4-carbonitrile]: 460 nM; `COc1cc2c(N3CCNC(c4cccc([N+](=O)[O-])c4)C3)nc(C)c(C#N)c2cc1OC` (stereo not drawn) [Compound 50, 6,7-Dimethoxy-3-methyl-1-[3-(3-nitro-phenyl)-piperazin-1-yl]-isoquinoline-4-carbonitrile]: 1100 nM. Then `COc1cc2c(N3CCNC(c4ccc(N5CCOCC5)cc4)C3)nc(C)c(C#N)c2cc1OC` (stereo not drawn) [Compound 51, 6,7-Dimethoxy-3-methyl-1-[3-(4-morpholin-4-yl-phenyl)-piperazin-1-yl]-isoquinoline-4-carbonitrile], with 1500 nM. Consider `COc1cc2c(C#N)cnc(N3CCN[C@H](c4ccccc4)C3)c2cc1OC` [Compound 52, 6,7-Dimethoxy-1-(®-3-phenyl-piperazin-1-yl)-isoquinoline-4-carbonitrile], for which the IC50 amounted to 210 nM. Next, `COc1ccc(C2CN(c3ncc(C#N)c4cc(OC)c(OC)cc34)CCN2)c(C)c1` (stereo not drawn) [Compound 53, 6,7-Dimethoxy-1-[3-(4-methoxy-2-methyl-phenyl)-piperazin-1-yl]-isoquinoline-4-carbonitrile]: 500 nM.

`COc1ccc(C2CN(c3ncc(C#N)c4cc(OC)c(OC)cc34)CCN2)cc1F` (stereo not drawn) [Compound 54, 1-[3-(3-Fluoro-4-methoxy-phenyl)-piperazin-1-yl]-6,7-dimethoxy-isoquinoline-4-carbonitrile] came in with an IC50 of 36 nM. Then `CCOc1ccc(C2CN(c3ncc(C#N)c4cc(OC)c(OC)cc34)CCN2)cc1` (stereo not drawn) [Compound 55, 1-[3-(4-Ethoxy-phenyl)-piperazin-1-yl]-6,7-dimethoxy-isoquinoline-4-carbonitrile], with 200 nM; and `COc1ccc(C2CN(c3ncc(C#N)c4cc(OC)c(OC)cc34)CCN2)cc1Cl` (stereo not drawn) [Compound 56, 1-[3-(3-Chloro-4-methoxy-phenyl)-piperazin-1-yl]-6,7-dimethoxy-isoquinoline-4-carbonitrile], with 81 nM. Turning to `COc1cc2c(C#N)cnc(N3CCNC(c4ccc(OC(C)C)cc4)C3)c2cc1OC` (stereo not drawn) [Compound 57, 1-[3-(4-Isopropoxy-phenyl)-piperazin-1-yl]-6,7-dimethoxy-isoquinoline-4-carbonitrile], the IC50 was 530 nM. Then `COc1ccc(C2CN(c3ncc(C#N)c4cc(OC)c(OC)cc34)CCN2)c(OC)c1` (stereo not drawn) [Compound 58, 1-[3-(2,4-Dimethoxy-phenyl)-piperazin-1-yl]-6,7-dimethoxy-isoquinoline-4-carbonitrile], with 850 nM. Then `CCOc1ccc(C2CN(c3ncc(C#N)c4cc(OC)c(OC)cc34)CCN2)cc1C` (stereo not drawn) [Compound 59, 1-[3-(4-Ethoxy-3-methyl-phenyl)-piperazin-1-yl]-6,7-dimethoxy-isoquinoline-4-carbonitrile], with 650 nM.

The values above are taken from patent US7858620B2, “Cyanoisoquinoline” (H. Lundbeck A/S, priority 2007, dated 2010).
